One assay deals with HSV-1 (KOS). Kind of assay: Antiviral activity in vitro: retardation of virus-induced cytopathogenicity in primary rabbit kidney cells, HSV-1 (KOS). Type of assay: cell-based, herpes simplex virus, Type 1. Conditions: Human alphaherpesvirus 1, average of 2 or 3 determinations, read-out: Minimum Inhibitory Concentration (concentration necessary to reduce by 50% the cytopathogenicity induced by the virus). The text has this: (§1) In a series of biological tests an investigation was made of the activity of the compounds of Examples 1-3 in comparison with acyclovir against various viruses in cell cultures of primary rabbit kidney cells.
(§2) The viruses used were: herpes simplex type 1 (strains KOS, Mc Intyre and F) and herpes simplex type 2 (strains Lyons, G and 196).
(§3) The origin of the six herpes simplex strains and the method for the measurement of the retardation of the cytopathogenicity induced by the virus are described by E. de Clercq et al. in J. Infect Dis., 141, 563 (1980).
(§4) The results of the tests are reproduced in the following table, where they are expressed in the minimum inhibitory concentration, that is to say the concentration (in μg/ml) which is necessary to reduce by 50% the cytopathogenicity induced by the virus in the cell culture. In all cases average values of 2 or 3 separate determinations are given.
A general note: Cytopathic effects are the visible damage that an infection or toxin causes in cultured cells.

The next assay deals with HSV-1 (McIntyre). Kind of assay: Antiviral activity in vitro: retardation of virus-induced cytopathogenicity in primary rabbit kidney cells, HSV-1 (McIntyre). Type of assay: cell-based, herpes simplex virus, Type 1. To be noted: Human alphaherpesvirus 1, average of 2 or 3 determinations, read-out: Minimum Inhibitory Concentration (concentration necessary to reduce by 50% the cytopathogenicity induced by the virus).
Description: as §1, §2, §3, §4

The next assay has as its system HSV-1 (F). Kind of assay: Antiviral activity in vitro: retardation of virus-induced cytopathogenicity in primary rabbit kidney cells, HSV-1 (F). In kind it is cell-based, herpes simplex virus, Type 1. Conditions: Human alphaherpesvirus 1, average of 2 or 3 determinations, read-out: Minimum Inhibitory Concentration (concentration necessary to reduce by 50% the cytopathogenicity induced by the virus).
Description: as §1, §2, §3, §4

A further assay concerns HSV-2 (Lyons). Kind of assay: Antiviral activity in vitro: retardation of virus-induced cytopathogenicity in primary rabbit kidney cells, HSV-2 (Lyons). Type of assay: cell-based, herpes simplex virus, Type 2. To be noted: Human alphaherpesvirus 2, average of 2 or 3 determinations, read-out: Minimum Inhibitory Concentration (concentration necessary to reduce by 50% the cytopathogenicity induced by the virus).
Description: as §1, §2, §3, §4

The test system of a further assay is HSV-2 (G). Kind of assay: Antiviral activity in vitro: retardation of virus-induced cytopathogenicity in primary rabbit kidney cells, HSV-2 (G). Type of assay: cell-based, herpes simplex virus, Type 2. Conditions: Human alphaherpesvirus 2, average of 2 or 3 determinations, read-out: Minimum Inhibitory Concentration (concentration necessary to reduce by 50% the cytopathogenicity induced by the virus).
Description: as §1, §2, §3, §4

Another assay concerns HSV-2 (196). Kind of assay: Antiviral activity in vitro: retardation of virus-induced cytopathogenicity in primary rabbit kidney cells, HSV-2 (196). In kind it is cell-based, herpes simplex virus, Type 2. Conditions: Human alphaherpesvirus 2, average of 2 or 3 determinations, read-out: Minimum Inhibitory Concentration (concentration necessary to reduce by 50% the cytopathogenicity induced by the virus).
Description: as §1, §2, §3, §4

The subject of the next assay is herpes viruses. To be noted: H. J. Schaeffer et al, Nature, 272, 583-585 (1978); cited from earlier work.
A further assay relates to HSV-1 (strain McIntyre). Kind of assay: Antiviral activity in vivo: HSV-1 stromal keratitis in rabbits, eye drops. The method, then:
The in vivo antiviral activity of the compound of Example 1 was compared with the known antiviral bromovinyldeoxyuridine.
Eye drops containing 0.5% (w/v) of bromovinyldeoxyuridine or 1% w/v of compound of Example 1 were prepared in an isotonic borate buffer containing 1.52 g boric acid, 0.008 g borax and 0.01 g benzalkoniumchloride in 100 ml distilled water. The pH of the solution was 5.7. The vehicle alone without any antiviral ingredients was used as placebo. The eye drops were coded.
A cross-breed of California albino and Dendermonde white rabbits, weighing between 1.5 and 2 kg, were used.
Thirty rabbits were used to produce stromal keratitis according to the technique of McNeill and Kaufman (Arch. Ophthalmol. 97: 727-729, 1979). Rabbits were anesthetized by a subcutaneous injection of fentanyl citrate at 1 ml/kg. A 0.2 ml virus suspension, containing 10^4.5 plaque-forming units of HSV-1 (strain McIntyre) per ml, was injected into the central corneal stroma of both eyes.
The rabbits were numbered serially and allocated at random to three groups of […] rabbits each. Treatment consisted of administration of eye drops containing the compound of Example 1, bromovinyldeoxyuridine, or placebo eye drops. Treatment was started one day after virus inoculation. One drop of the eye drop formulation was instiled into the eye at hourly intervals, nine times as day. Therapy was continued for 5 consecutive days. Both eyes of each rabbit received the same modification.
The severity of keratitis was evaluated daily by the same person using a slitlamp. White illumination was used to examine the corneal stroma and anterior chamber structures. One percent fluorescein sodium eye drops and a cobalt blue filter were employed to judge epithelial keratitis and corneal ulceration.

Where [1] appears, read: eye drops, Example 1 at 1% w/v or bromovinyldeoxyuridine at 0.5% w/v.
The mark [2] stands for this setting: iritis accompanying stromal HSV-1 keratitis, eye drops.

Converted amounts (≈) assume the structure as drawn. Structures can show the parent of a compound that is named as a salt.

Turning to `Nc1nc2c(ncn2COCCO)c(=O)[nH]1` [Acyclovir, 9-(2-Hydroxyethoxymethyl)guanine, reference compound], the IC50 was found to be 0.08 µg/mL (≈ 0.355 µM) in the assay on HSV-1 (KOS); 0.1 µg/mL (≈ 0.444 µM) in the assay on HSV-1 (McIntyre); 0.09 µg/mL (≈ 0.4 µM) with HSV-1 (F); 0.04 µg/mL (≈ 0.178 µM) in the assay with HSV-2 (Lyons); 0.06 µg/mL (≈ 0.266 µM) in the assay on HSV-2 (G); 0.06 µg/mL (≈ 0.266 µM) in the assay on HSV-2 (196). For the same compound, the antiviral activity result with herpes viruses is on record as “potential antiviral activity, particularly against herpes viruses”.

As to `Cl.NCC(=O)OCCOCn1cnc2c(=O)[nH]c(N)nc21` [Example 1, 9-(2-glycyloxyethoxymethyl)guanine hydrochloride], the IC50 in the assay on HSV-1 (KOS) is 0.1 µg/mL; with HSV-1 (McIntyre) it was 0.1 µg/mL; with HSV-1 (F) it was 0.1 µg/mL; with HSV-2 (Lyons) it was 0.04 µg/mL; in the assay with HSV-2 (G) it was 0.08 µg/mL; in the assay with HSV-2 (196), 0.07 µg/mL. For the same compound, in the assay with HSV-1 (strain McIntyre) (setting [1]), the “difference in keratitis score versus placebo” value is “statistically significant throughout the whole observation period”. The “progression or healing of stromal disease” value with HSV-1 (strain McIntyre) (setting [1]) is on record as “prevented the progression of stromal disease”. Moreover, in the assay with HSV-1 (strain McIntyre) (eye drops, Example 1 at 1% w/v or bromovinyldeoxyuridine at 0.5% w/v, hourly nine times a day, 5 days), the “suppression of stromal keratitis” value was “effective in suppressing stromal keratitis”. Moreover, the “difference in iritis scores versus placebo” value in the assay on HSV-1 (strain McIntyre) (setting [2]) is “significant from day 2 till day 8”. In the assay with HSV-1 (strain McIntyre) (setting [2]), the “reduction in the iritis scores” value is on record as “significant reduction in the iritis scores”. For the same compound, the mean keratitis scores result in the assay with HSV-1 (strain McIntyre) (once treatment was initiated, 1% w/v eye drops) was “remained nearly constant”.

With `CC(N)C(=O)OCCOCn1cnc2c(=O)[nH]c(N)nc21` (stereo not drawn) [Example 2, 9-(2-0-α-alanyloxyethoxymethyl)guanine hydrochloride], the IC50 in the assay on HSV-1 (KOS) came out at 0.4 µg/mL; with HSV-1 (McIntyre), 0.4 µg/mL; with HSV-1 (F), 0.4 µg/mL; in the assay on HSV-2 (Lyons), 0.07 µg/mL; with HSV-2 (G), 0.2 µg/mL; in the assay with HSV-2 (196), 0.1 µg/mL.

As to `NCCC(=O)OCCOCn1cnc2c(=O)[nH]c(N)nc21` [Example 3, 9-(2-0-β-alanyloxyethoxymethyl)guanine hydrochloride], the IC50 with HSV-1 (KOS) was determined as 0.2 µg/mL; with HSV-1 (McIntyre) it was 0.4 µg/mL; in the assay with HSV-1 (F), 0.5 µg/mL; in the assay with HSV-2 (Lyons) it was 0.1 µg/mL; in the assay on HSV-2 (G), 0.15 µg/mL; in the assay with HSV-2 (196), 0.1 µg/mL.

Source of the values: US4548819A, “Derivatives of 9-(2-hydroxyethoxymethyl) guanine” (priority 1983, dated 1985).
